From BindingDB's records for patent US10919852 (Chemocentryx, 2021)

Molecular target: Programmed cell death 1 ligand 1 (Homo sapiens, UniProt Q9NZQ7)
Assay: Enzyme-Linked Immunosorbent Assay ELISA
Protocol: 96 Well plates were coated with […] of human PD-L1 (obtained from R&D) in PBS overnight at 4° C. The wells were then blocked with 2% BSA in PBS (W/V) with 0.05% TWEEN-20 for 1 hour at 37° C. The plates were washed 3 times with PBS/0.05% TWEEN-20 and the compounds were serial diluted (1:5) in dilution medium and added to the ELISA plates. Human PD-1 and biotin 0.3 μg/mL (ACRO Biosystems) were added and incubated for 1 hour at 37° C. then washed 3 times with PBS/0.05% TWEEN-20. A second block was performed with 2% BSA in PBS (W/V)/0.05% TWEEN-20 for 10 min at 37° C. and was washed 3 times with PBS/0.05% TWEEN-20. Streptavidin-HRP was added for 1 hour at 37° C. then washed 3 times with PBS/0.05% TWEEN-20. TMB substrate was added and reacted for 20 min at 37° C. A stop solution (2 N aqueous H2SO4) was added. The absorbance was read at 450 nm using a micro-plate spectrophotometer.

Chain of Programmed cell death 1 ligand 1 (Q9NZQ7 whole entry): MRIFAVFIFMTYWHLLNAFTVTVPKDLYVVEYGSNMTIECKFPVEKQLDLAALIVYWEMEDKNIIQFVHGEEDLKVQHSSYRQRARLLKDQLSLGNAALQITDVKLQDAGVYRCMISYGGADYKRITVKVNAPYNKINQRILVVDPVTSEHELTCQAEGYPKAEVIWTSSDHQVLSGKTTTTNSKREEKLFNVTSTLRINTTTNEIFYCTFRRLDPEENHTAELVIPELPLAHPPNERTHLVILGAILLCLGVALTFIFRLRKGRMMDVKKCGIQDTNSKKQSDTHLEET

SMILES	IC50
Cc1c(OCCCN2CC[C@H](F)C[C@@H]2C)cccc1-c1cccc2c1CC[C@@H]2Oc1cc(OCc2cc(C#N)cc(C#N)c2)c(CN[C@H]2CCC(=O)NC2)cc1Cl [US10919852, Compound TABLE 1.341]	in the range around 253 nM
CCOc1cc(O[C@H]2CCc3c(-c4cccc(OCCCN5[C@H](C)CC[C@H]5C)c4C)cccc32)c(Cl)cc1CN1CCCC[C@H]1C(=O)O [US10919852, Compound TABLE 1.381]	in the range around 253 nM
CC1(F)CCN(CCCOc2cccc(-c3cccc4c3CC[C@@H]4Oc3cc(OCc4cncc(C#N)c4)c(CN[C@H]4CCC(=O)NC4)cc3Cl)c2Cl)CC1 [US10919852, Compound TABLE 1.280]	in the range around 253 nM
CCOc1cc(O[C@H]2CCc3c(-c4cccc(OCCCN5CCC5(C)C)c4C)cccc32)c(Cl)cc1CN1CC[C@H](C(=O)O)C1 [US10919852, Compound TABLE 1.412]	in the range around 253 nM
Cc1c(OCCCN2CCC(C)(F)CC2)cccc1-c1cccc2c1CC[C@@H]2Oc1cc(OCc2cc(C#N)cc(C#N)c2)c(CN[C@@H]2CCC[C@H]2O)cc1Cl [US10919852, Compound TABLE 1.294]	in the range around 253 nM
